Experimental data taken from patent US8173693B2, “Benzenesulfonamide derivatives and pharmaceutical composition thereof” (Purzer Pharmaceutical Co., Ltd., priority 2010, dated 2012).

Key:
HeLa Cervical cancer = experiment: SRB assay; format: cell-based; details: Homo sapiens, 48 hr
Procedure: (§1) All cell lines were maintained in RPMI 1640 supplied with 10% fetal bovine serum into 96-well microtiter plates and maintained in a humidified chamber at 37° C. containing 5% CO2. After 24 hr, cell lines in partial wells were fixed in situ with 10% trichloroacetic acid (TCA) to represent a measurement at the time of drug addition (T0). Then, cell lines in other wells were incubated with the benzenesulfonamide derivatives of the present invention for an additional 48 hr, and fixed in situ with 10% TCA to represent a measurement at the time of stopping reaction (Tx). After rinsing the plates with PBS and air-drying, 0.4% sulforhodamine B solution (weight per volume in 1% acetic acid) was added to each well and the plates were incubated for 10 min at room temperature. Unbound sulforhodamine B was removed with 1% acetic acid and the plates were air-dried. Cells bound with sulforhodamine B was subsequently solubilized with 10 mM Tris base (Trizma; Sigma). Cell proliferation was determined by measuring the optical density at 515 nm using a Thermomax microplate reader (Molecular Devices, Sunnyvale, Calif.). The half-inhibition concention (GI50) of the benzenesulfonamide derivatives of the present invention was obtained from the detected optical density.

[1] = tested on: CL1-5 non-small cell lung cancer; experiment: SRB assay; format: cell-based; details: 48 hr
Procedure: as §1

[2] = tested on: H1299 non-small cell lung cancer; experiment: SRB assay; format: cell-based; details: Homo sapiens, NCI-H1299, 48 hr
Procedure: as §1

[3] = tested on: MCF-7/ADR multidrug-resistant breast cancer; experiment: SRB assay; format: cell-based; details: Homo sapiens, NCI/ADR-RES
Procedure: as §1

[4] = tested on: Human breast carcinoma MCF-7 cells; experiment: MTT assay; format: cell-based; details: MCF7, 72 hr
Procedure: (§2) Human Bladder Cancer TSGH cells, Human hepatoblastoma HepG2 cells, Human colorectal adenocarcinoma HT-29 cells, human nasopharyngeal carcinoma KB cells, Human gastric adenocarcinoma AGS cells, Human breast carcinoma MCF-7 cells, lung carcinoma A549 cells, and Human prostate carcinoma PC-3 cells were used in the preliminary cytotoxicity assays of the benzenesulfonamide derivatives of the present invention, and the inhibition activity against the tumor cells was evaluated.
(§3) All cell lines were maintained in RPMI 1640 supplied with 10% fetal bovine serum and maintained in a humidified chamber at 37° C. containing 5% CO2. Then, all cell lines were treated with compounds for 72 hr and subsequently incubated with 0.4 mg/mL of MTT at 37° C. for 2 hr. The medium was removed, and DMSO was added to dissolve MTT precipitate. Cell proliferation was determined by measuring the optical density at 540 nm using a Thermomax microplate reader (Molecular Devices, Sunnyvale, Calif.), and the IC50 values of the benzenesulfonamide derivatives of the present invention were calculated.

[5] = tested on: Human Bladder Cancer TSGH cells; experiment: MTT assay; format: cell-based; details: 72 hr
Procedure: as §2, §3

[6] = tested on: human nasopharyngeal carcinoma KB cells; experiment: MTT assay; format: cell-based
Procedure: as §2, §3

[7] = tested on: Human hepatoblastoma HepG2 cells; experiment: MTT assay; format: cell-based; details: 72 hr, read-out: IC50 HepaG2
Procedure: as §2, §3

[8] = tested on: Human colorectal adenocarcinoma HT-29 cells; experiment: MTT assay; format: cell-based; details: 72 hr
Procedure: as §2, §3

[9] = tested on: A549 non-small cell lung cancer; experiment: MTT assay; format: cell-based; details: Homo sapiens, 72 hr
Procedure: as §2, §3

[10] = tested on: Human gastric adenocarcinoma AGS cells; experiment: MTT assay; format: cell-based; details: 72 hr
Procedure: as §2, §3

[11] = tested on: Human prostate carcinoma PC-3 cells; experiment: MTT assay; format: cell-based; details: 72 hr
Procedure: as §2, §3

[12] = tested on: murine mammary carcinoma cell line 4T1-Luc cells; experiment: 4T1-Luc cell survival, sulforhodamine B staining; format: cell-based
Procedure: The murine mammary carcinoma cell line 4T1-Luc cells stably expressing the firefly luciferase gene under the selection of G418 was cultured in RPMI containing 10% fetal calf serum. The cells were maintained at 37° C. with 5% CO2 in air and subcultured twice weekly.
Each well of 96-well plates was seeded with 2,500 or 5,000 tumor cells, and the tumor cells were incubated in medium with 10% fetal bovine serum or without serum. The tumor cells were treated with 0, 0.01, 0.1, 1, or 10 μM of GM119 for 48 hr. Then, the tumor cells were fixed with 10% of trichloroacetic acid, washed with water, stained with sulforhodamine B. Then, the sample was washed with 1% of acetic acid, and Tris buffer was added into the sample. The absorption of the sample was determined at 515 nm with a Thermomax microplate reader, and repeated for 4 times. The absorption of the cells without drug treatment served as 100% survival, and the survival was calculated and represented by average±standard deviation %.

4T1-Luc cells [13] = experiment: In vivo evaluation, long-time treatment, mice implanted with 4T1-Luc cells
Procedure: GM119 (25 mg/kg) and Taxol (10 mg/kg) were simultaneously applied to a mouse implanted with 4T1-Luc cells for a long time to observe the effect of GM119 on the 4T1-Luc cells.
A suspension of 4T1-Luc cells in matrigel was injected into the breast adipocyte to obtain mice implanted with luciferase tumor cells. […] When the size of the tumor cells was achieved to 200-500 mm^3, the mice were divided into […], and the number of the mice in each group is ≧5. Then, 0/0, 0/25, 10/[…], or 10/0 mg/kg of Taxol/GM119 was abdominal-injected into the mice every two days until death of the mice, wherein GM119 and Taxol were dissolved in cremophor, and the volume of injection to each mouse is 50 μl. The weight and the number of the mice were recorded every day to analyze the change on the weight and the survival time of the mice. After the drugs were applied to the mice, the size of the tumor cells in the mice was evaluated with bioluminescence every two days.

4T1-Luc cells [14] = experiment: In vitro analysis on cell morphology; format: cell-based, murine; details: 48 hr
Procedure: After the 4T1-Luc cells were treated with GM119, a phase-contrast microscope was used to observe the cell morphology of the 4T1-Luc cells. Cover glasses were placed in 6-well plates, and each well was seeded with 50,000 tumor cells. The tumor cells were developed in medium with 10% fetal bovine serum, and then treated with 0, 0.01, 0.1, 1, or 10 μM of GM119 for 48 hr. The cells were stained with Giemsa Stain solution (0.38 g of Giemsa powder, 15% of methanol, and 5% of glycerol). After the cells were washed, dried, and sealed, the images of the cells were photographed with a phase-contrast microscope.

[15] = tested on: Human gastric adenocarcinoma AGS cells; experiment: SRB assay; format: cell-based; details: 48 hr

For `COc1ccc(S(=O)(=O)Nc2cccc3c2[nH]c2c(C)ccc(C)c23)cc1` [Compound 6c, N-(5,8-Dimethyl-9H-carbazol-1-yl)-4-methoxybenzenesulfonamide], the GI50 (HeLa Cervical cancer) was 190 nM, the GI50 [1] was 260 nM and the GI50 [2] was 460 nM. For the same compound, the GI50 [3] was 390 nM, the IC50 [4] was 240 nM and the IC50 [5] was 500 nM. The IC50 ([6]; Homo sapiens, KB, MTT assay, 72 hr) was 800 nM, the “inhibitory activity against KB cells compared with E7070” value ([6]; own MTT value vs literature value) was “has higher inhibitory activity against KB cells than E7070” and the IC50 [7] was 400 nM. For the same compound, the IC50 [8] was 400 nM, the IC50 [9] was 1120 nM and the IC50 [10] was 1400 nM. For the same compound, the IC50 [11] was 240 nM, the “growth of the 4T1 cells” value ([12]; 0.01 μM, 48 hr, medium with or without serum, FIG. 1) was “the growth of the 4T1 cells can be inhibited” and the “inhibition of the 4T1 cells” value ([12]; 10 μM, 48 hr, FIG. 1) was “the inhibition of the 4T1 cells is apparent”. The “killing of 4T1 cells (FIG. 1 legend)” value ([12]; in vitro assay) was “kills the murine mammary carcinoma 4T1 cell”, the “survival of the mice” value (4T1-Luc cells [13]; long time: Taxol 10 mg/kg and/or GM119 25 mg/kg abdominal-injected every two days until death, FIG. 3) was “the survival time of the mice is the longest” and the “growth of the tumor cells (bioluminescence)” value (4T1-Luc cells [13]; long-time treatment) was “the growth of the tumor cells can be inhibited”. The “growth of the 4T1 cells (microscope images)” value (4T1-Luc cells [14]; 0.01 μM) was “the growth of the 4T1 cells can be inhibited”, the “inhibition of the 4T1 cells (microscope images)” value (4T1-Luc cells [14]; 10 μM) was “the inhibition of the 4T1 cells is apparent” and the IC50 [15] was 1000 nM.
